Source: publication PMC3638593, “1,4-dihydroxy-2-naphthoic Acid Induces Apoptosis in Human Keratinocyte: Potential Application for Psoriasis Treatment” (Evidence-based Complementary and Alternative Medicine : eCAM, 2013)
Values joined by “and” are separate entries in the source; they are usually repeats but may differ in a detail not shown here. Identical values can stand only once. Like-named read-outs stand apart in the source and are kept apart here.

Columns and labels:
Format in all cases: cell-based, human
HaCaT cells = assay: Proliferation assay (sulphorhodamine B) on HaCaT; settings: for IC50: Homo sapiens, read-out: IC50 on growth
Text: (§1) The spontaneously immortalized human epidermal keratinocyte HaCaT cells were purchased from China Centre for Type Culture Collection, Wuhan, China. The human foreskin fibroblast Hs-68 cells were purchased from the American Type Culture Collection (Manassas, VA, USA). The human undifferentiated keratinocyte NCTC 2544 cells were provided by Interlab Cell Line Collection (Genoa, Italy) and the immortalized human epidermal melanocyte PIG1 cells were a gift from Dr Caroline Le Poole (Loyola University Chicago, Maywood, IL, USA). HaCaT and Hs-68 cells were maintained in DMEM, NCTC 2544 in RPMI 1640 and PIG1 cells in Medium 254 with Human Melanocyte Growth Supplement-2, respectively. All cells were cultured in complete medium containing 10% FBS, 100 μg/mL of streptomycin, and 100 U/mL of penicillin (Gibco Laboratories) at 37°C in a humidified atmosphere of 5% CO2. Cell culture experiments were carried out at 60–80% confluent.
(§2) The ethyl acetate extract (EA) of Rubia cordifolia L. was isolated as described. 1,4-dihydroxy-2-naphthoic acid (98%), dithranol (≥90%), and EA were dissolved in DMSO as stock. All cells were seeded and treated with various concentrations of DHNA, dithranol or EA. After treatment, cells were fixed with cold 50% trichloroacetic acid and incubated 1 h at 4°C. Cell was then washed with deionized water, air-dried, and stained with 0.4% (w/v) sulphorhodamine B for 30 min at room temperature. Unincorporated dye was removed with 1% acetic acid wash and the cell was again air-dried. Incorporated dye was then solubilized in 10 mM Tris base and absorbance was measured at 565/690 nm using a Sunrise microplate spectrophotometer (Tecan, Switzerland). IC50 were determined using GraphPad Prism 5.0 (GraphPad Software, San Diego, CA, USA).

NCTC 2544 cells = assay: Proliferation assay (sulphorhodamine B) on NCTC 2544; settings: for IC50: Homo sapiens, read-out: IC50 on growth
Text: as §1, §2

[1] = test system: cell cycle related proteins in HaCaT cells; assay: Western blot of cell cycle related proteins; settings: 12 h
Description: (§3) After DHNA treatment HaCaT cells were collected and lysed in CelLytic M Mammalian Cell Lysis/Extraction Reagent with freshly added Protease Inhibitor Cocktail for 30 min at 4°C. Cell lysate was centrifuged at 15000 g for 15 min at 4°C and supernatant was collected as whole cell lysate. Protein concentration was determined by Bio-Rad protein assay dye reagent concentrate (Bio-Rad Laboratories, Hercules, CA, USA) following the manufacturer's instructions. Whole cell lysate was denatured by boiling for 5 min in 6X SDS loading buffer (0.375 M Tris [pH 6.8], 30% glycerol, 12% SDS, 0.2% bromophenol blue and 12% β-mercaptoethanol). Equal amount of protein (10–20 μg) was then separated by 12–15% SDS-PAGE and later proteins were transferred to polyvinylidene difluoride membrane (Millipore, Billerica, MA, USA) using Trans-Blot SD semidry transfer cell (Bio-Rad Laboratories). After that, membranes were blocked with 2–5% (w/v) bovine serum albumin or nonfat dry milk in Tris-buffered Saline-Tween (TBS-T; 0.05% v/v Tween-20, 10 mM Tris [pH 7.4], 150 mM NaCl) for 1 h and subsequently incubated overnight at 4°C with different primary antibodies in TBS-T. Membrane was then washed using TBS-T and followed by incubation with corresponding horseradish peroxidase labeled second antibodies (Santa Cruz Biotechnology) in TBS-T for 1 h. After washing of membrane with TBS-T, protein bands were visualized using Immobilon Western Chemiluminescent HRP Substrate (Millipore) and autoradiography with Lumi-Film Chemiluminescent Detection Film (Roche Applied Science). Equal protein loading was monitored by β-actin antibody on the same membrane.

[2] = test system: apoptosis related proteins in HaCaT cells; assay: Western blot of apoptosis related proteins
Description: as §3

[3] = test system: IL-1α release from NCTC 2544 cells; assay: IL-1α release assay (ELISA)
Description: NCTC 2544 cells were seeded and treated with various concentrations of DHNA or dithranol for 72 h. After incubation, the microplate was centrifuged and conditioned medium was collected to determine the extracellular IL-1α (IL-1α release) using an IL-1α ELISA kit (Diaclone Research, France). All other steps were then according to the manufacturer's protocol. Results were expressed in pg/mL.

O=C(O)c1cc(O)c2ccccc2c1O [DHNA, 1,4-dihydroxy-2-naphthoic acid]
IC50 (HaCaT cells; incubation 48 h): 111 µM and 22.8 µg/mL | IC50 (HaCaT cells; incubation 72 h): 38.9 µM and 7.95 µg/mL | less potent than dithranol in inhibiting keratinocytes growth (HaCaT cells; compared with dithranol): ~ 4 times | IC50 (NCTC 2544 cells; NCTC 2544, incubation 48 h): 81.4 µM and 16.6 µg/mL | IC50 (NCTC 2544 cells; NCTC 2544, incubation 72 h): 46.8 µM and 9.56 µg/mL | less potent than dithranol in inhibiting keratinocytes growth (NCTC 2544 cells; NCTC 2544, compared with dithranol): ~ 12 times | active form of Cdk2 (Thr160 phosphorylated, 33 kDa) ([1]; 240 μM (49.01 μg/mL)): no visible change | inactive form of Cdk2 (Thr14 and Tyr15 phosphorylated, 34 kDa) ([1]; 240 μM (49.01 μg/mL)): increased | level of Cyclin A/D1/D3 and Cdk4 ([1]; 240 μM (49.01 μg/mL)): decreasing | expression level of p27 and Cdk6 [1]: remains unchanged | expression of cyclin dependent kinase inhibitor p21 [1]: dose-dependent increase | Bid cleavage ([2]; 240 μM (49.01 μg/mL), 12 h): not cleaved | Fas receptor and active form of caspase-3/7/8 ([2]; 240 μM (49.01 μg/mL), 12 h): upregulated | PARP cleavage ([2]; 240 μM (49.01 μg/mL), 12 h): induced PARP cleavage | active form of caspase-9 ([2]; 240 μM (49.01 μg/mL), 12 h): no active form of caspase-9 was found | procaspase-8 level ([2]; 240 μM (49.01 μg/mL), 12 h): decreased | expression levels of Bcl-2, Bcl-xL, Bid, and FADD ([2]; 12 h): no significant changes | activated caspase-9 and cleaved Bid ([2]; 24 h): could then be detected | IL-1α release at IC50 on NCTC 2544 keratinocytes ([3]; 46.80 μM or 9.56 μg/mL, 72 h): no significant IL-1α was released | higher concentration needed for IL-1α release than dithranol ([3]; NCTC 2544, 72 h, DHNA versus dithranol): ~ 30 times | concentration at which IL-1α release is significantly induced ([3]; NCTC 2544, 72 h, versus vehicle control): 60 μM and 12.25 μg/mL
